# Assay results reported in patent US10882860B2, “Treatment of osteoarthritis” (Samumed, LLC, priority 2015, dated 2021).
# Marks after values point to notes of the source that are not given here.
# Test system: moderate-to-severe symptomatic knee OA subjects
# Test: Phase 1 MRI and radiograph study (bone marrow edema, cartilage thickness, joint space width)
# Format: in vivo, human
# Details: for Bone Marrow Edema [N(%)]: Baseline Diffuse, Week 12 Diffuse / Bone Marrow Edema [N(%)]: Baseline Diffuse, Week 12 Focal / Bone Marrow Edema [N(%)]: Baseline Diffuse, Week 12 None / Bone Marrow Edema [N(%)]: Baseline Focal, Week 12 Diffuse / Bone Marrow Edema [N(%)]: Baseline Focal, Week 12 Focal / Bone Marrow Edema [N(%)]: Baseline Focal, Week 12 None / Bone Marrow Edema [N(%)]: Baseline None, Week 12 Diffuse / Bone Marrow Edema [N(%)]: Baseline None, Week 12 Focal / Bone Marrow Edema [N(%)]: Baseline None, Week 12 None: MRI; for change from baseline in joint space width (radiograph): Week 24
# Excerpt: To assess the safety and efficacy of the compound of Formula (I) (Form 1), magnetic resonance imaging (MM) was used. Safety evaluations included assessment of bone marrow edema by Mill. MM was used to document changes from baseline in total cartilage volume and thickness in the compartments of the target knee joint. Imaging results (safety and exploratory outcomes) in the Phase 1 study are described above.
# Knee MRIs were obtained with a 16 channel knee coil on a 3.0T MRI machine using a standard diagnostic protocol (resolution 0.1-0.4 mm). MM scans were collected at the baseline visit (which could occur ≤28 days prior to study injection) and again at Weeks 12 and 24. The sponsor was unblinded after Week 12 for each cohort; site investigators remained blinded.
# An exploratory analysis of change in imaging outcomes was conducted using repeated measures analysis of covariance (ANCOVA) adjusting for baseline in the Intention-to-Treat (ITT) population.
# As a safety assessment, MRI scans were used to monitor the presence of focal or diffuse bone marrow edema (BME) in all subjects.
# Average cartilage thickness over covered subchondral bone was reported for the following four compartments: medial femoral condyles, lateral femoral condyles, medial tibial plateaus, and lateral tibial plateaus.
# FIG. 27 depicts the MRI of a knee joint. To determine average cartilage thickness, the cartilage thickness between the subchondral bone area (400 and 404) and the articular cartilage surface (402 and 406) was measured at numerous (˜400-2000) locations in both directions in the parts covered by cartilage (cAB) and averaged. Measurements were performed in three dimensions. Additionally, the average of the lowest 1% of cartilage thickness was also reported for all 4 compartments. The total for both average thickness and lowest thickness were derived by summing each of the 4 compartments' observations.
# Radiographs of the target knee were taken during the screening period and at Week 24 to document change from baseline in joint space width (JSW). Table 52 depicts joint space width as measured by radiography for three dosing cohorts and a placebo group.
structure (smiles),measurement,setting,value
CC(C)CC(=O)Nc1cncc(-c2ccc3[nH]nc(-c4nc5c(-c6cccc(F)c6)cncc5[nH]4)c3c2)c1 [compound of Formula (I)],"Bone Marrow Edema [N(%)]: Baseline Diffuse, Week 12 Diffuse",0.03 mg cohort,1 (6%) N(%)
same,"Bone Marrow Edema [N(%)]: Baseline Diffuse, Week 12 Focal",0.03 mg cohort,1 (6%) N(%)
same,"Bone Marrow Edema [N(%)]: Baseline Diffuse, Week 12 None",0.03 mg cohort,0 N(%)
same,"Bone Marrow Edema [N(%)]: Baseline Focal, Week 12 Diffuse",0.03 mg cohort,0 N(%)
same,"Bone Marrow Edema [N(%)]: Baseline Focal, Week 12 Focal",0.03 mg cohort,4 (25%) N(%)
same,"Bone Marrow Edema [N(%)]: Baseline Focal, Week 12 None",0.03 mg cohort,0 N(%)
same,"Bone Marrow Edema [N(%)]: Baseline None, Week 12 Diffuse",0.03 mg cohort,0 N(%)
same,"Bone Marrow Edema [N(%)]: Baseline None, Week 12 Focal",0.03 mg cohort,1 (6%) N(%)
same,"Bone Marrow Edema [N(%)]: Baseline None, Week 12 None",0.03 mg cohort,9 (57%) N(%)
same,"Joint space width by radiograph, Week 24 (mm) Actual [Mean (SD)]","0.03 mg cohort, N 15",4.50 (1.72) mm
same,"Joint space width by radiograph, Week 24 (mm) Change from baseline [Mean (SD)]","0.03 mg cohort, N 15",0.00 (0.69) mm
same,"Mean cartilage thickness by MRI, Week 12 (mm) Actual [Mean (SD)]","0.03 mg cohort, N 16",5.38 (1.19) mm
same,"Mean cartilage thickness by MRI, Week 12 (mm) Change from baseline [Mean (SD)]","0.03 mg cohort, N 16",−0.06 (0.39) mm
same,"Mean thinnest cartilage by MRI, Week 12 (mm) Actual [Mean (SD)]","0.03 mg cohort, N 16",3.84 (1.57) mm
same,"Mean thinnest cartilage by MRI, Week 12 (mm) Change from baseline [Mean (SD)]","0.03 mg cohort, N 16",0.11 (0.37) mm
same,area of mean thinnest cartilage by MRI,"0.03 mg cohort, Week 12",possible trend towards increase
same,change from baseline in joint space width (radiograph),0.03 mg cohort,no change
same,"Bone Marrow Edema [N(%)]: Baseline Diffuse, Week 12 Diffuse",0.07 mg cohort,0 N(%)
same,"Bone Marrow Edema [N(%)]: Baseline Diffuse, Week 12 Focal",0.07 mg cohort,1 (6%) N(%)
same,"Bone Marrow Edema [N(%)]: Baseline Diffuse, Week 12 None",0.07 mg cohort,0 N(%)
same,"Bone Marrow Edema [N(%)]: Baseline Focal, Week 12 Diffuse",0.07 mg cohort,0 N(%)
same,"Bone Marrow Edema [N(%)]: Baseline Focal, Week 12 Focal",0.07 mg cohort,1 (6%) N(%)
same,"Bone Marrow Edema [N(%)]: Baseline Focal, Week 12 None",0.07 mg cohort,1 (6%) N(%)
same,"Bone Marrow Edema [N(%)]: Baseline None, Week 12 Diffuse",0.07 mg cohort,0 N(%)
same,"Bone Marrow Edema [N(%)]: Baseline None, Week 12 Focal",0.07 mg cohort,2 (13%) N(%)
same,"Bone Marrow Edema [N(%)]: Baseline None, Week 12 None",0.07 mg cohort,11 (69%) N(%)
same,"Joint space width by radiograph, Week 24 (mm) Actual [Mean (SD)]","0.07 mg cohort, N 14",4.16 (1.64) mm
same,"Joint space width by radiograph, Week 24 (mm) Change from baseline [Mean (SD)]","0.07 mg cohort, N 14, p = 0.006 versus placebo",0.59 (0.66)* mm
same,"Mean cartilage thickness by MRI, Week 12 (mm) Actual [Mean (SD)]","0.07 mg cohort, N 16",5.37 (0.71) mm
same,"Mean cartilage thickness by MRI, Week 12 (mm) Change from baseline [Mean (SD)]","0.07 mg cohort, N 16",−0.02 (0.25) mm
same,"Mean thinnest cartilage by MRI, Week 12 (mm) Actual [Mean (SD)]","0.07 mg cohort, N 16",3.88 (1.39) mm
same,"Mean thinnest cartilage by MRI, Week 12 (mm) Change from baseline [Mean (SD)]","0.07 mg cohort, N 16",0.10 (0.55) mm
same,area of mean thinnest cartilage by MRI,"0.07 mg cohort, Week 12",possible trend towards increase
same,change from baseline in joint space width (radiograph),0.07 mg cohort,increase
same,"Bone Marrow Edema [N(%)]: Baseline Diffuse, Week 12 Diffuse",0.23 mg cohort,2 (13%) N(%)
same,"Bone Marrow Edema [N(%)]: Baseline Diffuse, Week 12 Focal",0.23 mg cohort,0 N(%)
same,"Bone Marrow Edema [N(%)]: Baseline Diffuse, Week 12 None",0.23 mg cohort,0 N(%)
same,"Bone Marrow Edema [N(%)]: Baseline Focal, Week 12 Diffuse",0.23 mg cohort,0 N(%)
same,"Bone Marrow Edema [N(%)]: Baseline Focal, Week 12 Focal",0.23 mg cohort,8 (50%) N(%)
same,"Bone Marrow Edema [N(%)]: Baseline Focal, Week 12 None",0.23 mg cohort,1 (6%) N(%)
same,"Bone Marrow Edema [N(%)]: Baseline None, Week 12 Diffuse",0.23 mg cohort,0 N(%)
same,"Bone Marrow Edema [N(%)]: Baseline None, Week 12 Focal",0.23 mg cohort,1 (6%) N(%)
same,"Bone Marrow Edema [N(%)]: Baseline None, Week 12 None",0.23 mg cohort,4 (25%) N(%)
same,"Mean cartilage thickness by MRI, Week 12 (mm) Actual [Mean (SD)]","0.23 mg cohort, N 15",5.32 (1.03) mm
same,"Mean cartilage thickness by MRI, Week 12 (mm) Change from baseline [Mean (SD)]","0.23 mg cohort, N 15",−0.04 (0.24) mm
same,"Mean thinnest cartilage by MRI, Week 12 (mm) Actual [Mean (SD)]","0.23 mg cohort, N 15",3.01 (1.27) mm
same,"Mean thinnest cartilage by MRI, Week 12 (mm) Change from baseline [Mean (SD)]","0.23 mg cohort, N 15",−0.13 (0.30) mm
same,"Joint space width by radiograph, Week 24 (mm) Actual [Mean (SD)]","0.23 mg cohort, N 16",3.47 (1.68) mm
same,"Joint space width by radiograph, Week 24 (mm) Change from baseline [Mean (SD)]","0.23 mg cohort, N 16",−0.15 (1.07) mm
same,change from baseline in joint space width (radiograph),0.23 mg cohort,decrease
same,"exploratory imaging results, dose comparison",0.23 mg dose vs 0.03 mg and 0.07 mg doses,less effective
same,effect on bone marrow edema compared to Placebo,"single IA injection, interim",no appreciable effect
same,mean cartilage thickness by MRI,"treated subjects, Week 12",no substantial degradation
same,subjects with improved BME results (focal to none and diffuse to focal),"treatment groups, baseline to Week 12",4
